Reference: US11345713B2, “Compounds as modulators of TLR2 signaling” (Neuropore Therapies, inc., priority 2018, dated 2022)

Key:
[1] = target: T1, human TLR2 (Pam3CSK4, TLR1/2 agonist) in HEK-Blue hTLR2 cells (Homo sapiens, UniProt O60603); experiment: HEK-Blue hTLR2 antagonism assay (SEAP reporter) with Pam3CSK4 as agonist; type: cell-based; settings: 2 h compound pre-incubation, approx. 3×EC50 Pam3CSK4, 18 h, SEAP OD 655 nm, background subtracted
T1 construct: host or cells: HEK-Blue hTLR2 (HEK-293)
Experimental: (§1) Synthetic diacylated lipoprotein (Pam2CSK4, TLR2/6 agonist) and synthetic triacylated lipoprotein (Pam3CSK4, TLR1/2 agonist) were obtained from InvivoGen and were dissolved in endotoxin-free water to a concentration 1 mg/mL, vortexed until complete solubilization, and stored in aliquots at −20° C. Prior to addition to cells, an aliquot of the dissolved ligand was vortexed shortly and then was diluted in medium to 25 ng/mL Pam2CSK4 or 1000 ng/mL Pam3CSK4. The EC50 of the agonists for each assay run was determined by using 3-fold dilutions of each agonist from the following starting concentrations: 5 ng/mL for Pam2CSK4, and 200 ng/mL for Pam3CSK4.
(§2) Test compounds were solubilized fresh to 10-20 mM stocks in DMSO and sonicated for 5-10 minutes in a water bath sonicator. Serial dilutions were prepared in DMSO, and then diluted in medium. The final concentration of DMSO used in the assay was 1%.
(§3) HEK-Blue hTLR2 reporter cells (InvivoGen) are HEK-293 cells stably expressing both the human TLR2 gene and a secreted embryonic alkaline phosphatase (SEAP) reporter construct downstream of NFκB promotor sites. HEK-Blue hTLR2 reporters were cultured according to manufacturer's protocol using Dulbecco's Modified Eagle Medium (DMEM; Gibco) containing 1× GlutaMax (Gibco), 10% heat-inactivated Fetal Bovine Serum (Gibco), Pen-Strep (50 U/mL penicillin, 50 μg/mL streptomycin, Gibco), 100 μg/mL Normocin (InvivoGen), and the selective antibiotic, 1× HEK-Blue Selection (InvivoGen). Quanti-Blue reagent (InvivoGen) for detection and quantification of secreted alkaline phosphatase was dissolved in 100 mL of endotoxin-free water, warmed to 37° C. for 30 minutes and then filtered using a 0.2 μm membrane.
(§4) On day 1, 50 μL of each test compound dilution in duplicates or a vehicle control was added to each well of a 96-well plate followed by addition of 150 μL of HEK-Blue hTLR2 cell suspension (1×10^5 cells/well) and incubated at 37° C./5% CO2 for 2 h. Next, 50 μL of an approximate 3×EC50 concentration of each agonist (Pam2CSK4 or Pam3CSK4) was added to the wells containing test compounds or the vehicle control. The plates were then incubated at 37° C./5% CO2 for 18 h. For each assay run, non-treated HEK-Blue hTLR2 cells were treated with serial dilutions of agonists to determine EC50 values for the respective run.
(§5) On day 2, secreted alkaline phosphatase (SEAP) activity was detected in cell culture supernatants. In brief, 20 μL was collected from each well and transferred to a 96-well plate. Next, 200 μL of Quanti-Blue detection reagent was added to each well. Plates were incubated at room temperature for 15 min and SEAP activity was assessed by spectrophotometer OD reading at 655 nm. […] The activities of the compounds against Pam2CSK4 and Pam3CSK4 are presented as IC50 values for the response from cells treated with agonists with the background signal subtracted.

[2] = target: T2, human TLR2 (Pam2CSK4, TLR2/6 agonist) in HEK-Blue hTLR2 cells (Homo sapiens, UniProt O60603); experiment: HEK-Blue hTLR2 antagonism assay (SEAP reporter) with Pam2CSK4 as agonist; type: cell-based; settings: 2 h compound pre-incubation, approx. 3×EC50 Pam2CSK4, 18 h, SEAP OD 655 nm, background subtracted
T2 construct: host or cells: HEK-Blue hTLR2 (HEK-293)
Experimental: as §1, §2, §3, §4, §5

T1 sequence (O60603 19-784 limits assumed): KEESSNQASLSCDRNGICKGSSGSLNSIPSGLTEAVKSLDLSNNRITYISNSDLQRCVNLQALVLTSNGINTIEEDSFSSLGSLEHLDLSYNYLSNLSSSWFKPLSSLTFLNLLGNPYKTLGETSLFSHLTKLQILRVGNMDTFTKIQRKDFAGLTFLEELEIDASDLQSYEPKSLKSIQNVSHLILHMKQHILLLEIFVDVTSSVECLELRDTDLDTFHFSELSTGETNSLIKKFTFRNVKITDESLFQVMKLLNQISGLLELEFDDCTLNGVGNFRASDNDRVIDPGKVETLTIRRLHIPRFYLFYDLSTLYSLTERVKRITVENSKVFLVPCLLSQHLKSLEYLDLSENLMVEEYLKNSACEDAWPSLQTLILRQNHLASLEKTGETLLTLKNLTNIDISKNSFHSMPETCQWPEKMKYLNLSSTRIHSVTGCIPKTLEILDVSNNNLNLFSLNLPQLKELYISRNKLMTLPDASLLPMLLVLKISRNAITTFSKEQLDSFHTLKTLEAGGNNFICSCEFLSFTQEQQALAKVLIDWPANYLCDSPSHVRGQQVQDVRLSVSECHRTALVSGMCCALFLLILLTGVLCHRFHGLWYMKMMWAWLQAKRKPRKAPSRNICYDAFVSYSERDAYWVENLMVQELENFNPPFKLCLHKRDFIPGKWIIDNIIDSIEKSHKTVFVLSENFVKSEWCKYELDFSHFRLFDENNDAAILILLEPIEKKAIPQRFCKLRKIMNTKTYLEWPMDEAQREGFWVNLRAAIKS
T2 sequence (O60603 19-784 limits assumed): as above

| Compound | IC50 [1] [µM] | IC50 [2] [µM] |
| --- | --- | --- |
| COc1cc(/C=C/c2ccc3ccccc3c2)cc(C=O)c1O [compound 32, (E)-2-hydroxy-3-methoxy-5-(2-(naphthalen-2-yl)vinyl)benzaldehyde] | 1 | 1.1 |
| COc1cc(/C=C/C(=O)c2ccccc2)cc(C=O)c1O [compound 33, (E)-2-hydroxy-3-methoxy-5-(3-oxo-3-phenylprop-1-en-1-yl)benzaldehyde] | 6.4 | 6.2 |
| COc1cc(/C=C/c2cc(C=O)c(O)c(OC)c2)ccc1O [compound 34, (E)-2-hydroxy-5-(4-hydroxy-3-methoxystyryl)-3-methoxybenzaldehyde] | 7.5 | 9.7 |
| COc1cc(/C=C/C(=O)N2CCOCC2)cc(C=O)c1O [compound 35, (E)-2-hydroxy-3-methoxy-5-(3-morpholino-3-oxoprop-1-en-1-yl)benzaldehyde] | 62.6 | 68.5 |
| COc1cc(/C=C/c2ccc(-c3ccccc3)cc2)cc(C=O)c1O [compound 36, (E)-5-(2-([1,1′-biphenyl]-4-yl)vinyl)-2-hydroxy-3-methoxybenzaldehyde] | 0.4 | 0.6 |
| O=Cc1cc(/C=C/c2ccc(-c3ccccc3)cc2)cc(F)c1O [compound 37, (E)-5-(2-([1,1′-biphenyl]-4-yl)vinyl)-3-fluoro-2-hydroxybenzaldehyde] | 0.3 | 1 |
| COc1cc(C=Cc2ccc3c(c2)OCCO3)cc(C=O)c1O [compound 38, 5-(2-(2,3-dihydrobenzo[b][1,4]dioxin-6-yl)vinyl)-2-hydroxy-3-methoxybenzaldehyde] | 5 | 4.4 |
| O=Cc1cc(/C=C/c2ccc3c(c2)OCCO3)cc(F)c1O [compound 39, (E)-5-(2-(2,3-dihydrobenzo[b][1,4]dioxin-6-yl)vinyl)-3-fluoro-2-hydroxybenzaldehyde] | 15.4 | 12.8 |
| COc1cc(/C=C/c2ccc(N3CCOCC3)cc2)cc(C=O)c1O [compound 40, (E)-2-hydroxy-3-methoxy-5-(4-morpholinostyryl)benzaldehyde] | 2.5 | 2.3 |
| COc1cc(/C=C\c2ccc(N3CCOCC3)cc2)cc(C=O)c1O [compound 41, (Z)-2-hydroxy-3-methoxy-5-(4-morpholinostyryl)benzaldehyde] | 29.8 | 35.1 |
| O=Cc1cc(/C=C/c2ccc(N3CCOCC3)cc2)cc(F)c1O [compound 42, (E)-3-fluoro-2-hydroxy-5-(4-morpholinostyryl)benzaldehyde] | 4.5 | 3.4 |
| O=Cc1cc(/C=C\c2ccc(N3CCOCC3)cc2)cc(F)c1O [compound 43, (Z)-3-fluoro-2-hydroxy-5-(4-morpholinostyryl)benzaldehyde] | 40.7 | 32.8 |
| COc1cc(/C=C/c2cccc(N3CCOCC3)c2)cc(C=O)c1O [compound 44, (E)-2-hydroxy-3-methoxy-5-(3-morpholinostyryl)benzaldehyde] | 3.2 | 3 |
| O=Cc1cc(/C=C/c2cccc(N3CCOCC3)c2)cc(F)c1O [compound 45, (E)-3-fluoro-2-hydroxy-5-(3-morpholinostyryl)benzaldehyde] | 6.7 | 5 |
| COc1cc(/C=C/c2cccc(N3CCCC3)c2)cc(C=O)c1O [compound 46, (E)-2-hydroxy-3-methoxy-5-(3-(pyrrolidin-1-yl)styryl)benzaldehyde] | 1 | 1.4 |
| O=Cc1cc(/C=C/c2cccc(N3CCCC3)c2)cc(F)c1O [compound 47, (E)-3-fluoro-2-hydroxy-5-(3-(pyrrolidin-1-yl)styryl)benzaldehyde] | 0.9 | 1.3 |
| COc1cc(/C=C/c2ccc(N3CCCC3)cc2)cc(C=O)c1O [compound 48, (E)-2-hydroxy-3-methoxy-5-(4-(pyrrolidin-1-yl)styryl)benzaldehyde] | 0.6 | 1 |

| Compound | IC50 [1] [µM] | IC50 [2] [µM] |
| --- | --- | --- |
| O=Cc1cc(/C=C\c2ccc(N3CCCC3)cc2)cc(F)c1O [compound 50, (Z)-3-fluoro-2-hydroxy-5-(4-(pyrrolidin-1-yl)styryl)benzaldehyde] | 6.7 | 10 |
| COc1cc(/C=C\c2ccc(N3CCCC3)cc2)cc(C=O)c1O [compound 51, (Z)-2-hydroxy-3-methoxy-5-(4-(pyrrolidin-1-yl)styryl)benzaldehyde] | 70.1 | 71.3 |
| COc1cc(/C=C/c2ccc(N3CCCC3)cc2)cc(O)c1C=O [compound 52, (E)-2-hydroxy-6-methoxy-4-(4-(pyrrolidin-1-yl)styryl)benzaldehyde] | > 100 | > 100 |
| O=Cc1c(O)cc(/C=C/c2ccc(N3CCCC3)cc2)cc1F [compound 53, (E)-2-fluoro-6-hydroxy-4-(4-(pyrrolidin-1-yl)styryl)benzaldehyde] | 1.5 | 1.3 |
| COCCOc1ccc(/C=C/c2cc(C=O)c(O)c(OC)c2)cc1 [compound 54, (E)-2-hydroxy-3-methoxy-5-(4-(2-methoxyethoxy)styryl)benzaldehyde] | 4.6 | 4 |
| COCCOc1ccc(/C=C/c2cc(F)c(O)c(C=O)c2)cc1 [compound 55, (E)-3-fluoro-2-hydroxy-5-(4-(2-methoxyethoxy)styryl)benzaldehyde] | 4.1 | 3.6 |
| COc1cc(/C=C/c2ccc(-n3cccn3)cc2)cc(C=O)c1O [compound 56, (E)-5-(4-(1H-pyrazol-1-yl)styryl)-2-hydroxy-3-methoxybenzaldehyde] | 1.7 | 1.8 |
| O=Cc1cc(/C=C/c2ccc(-n3cccn3)cc2)cc(F)c1O [compound 57, (E)-5-(4-(1H-pyrazol-1-yl)styryl)-3-fluoro-2-hydroxybenzaldehyde] | 1.9 | 1.7 |
| COc1cc(/C=C/c2ccc3ncccc3c2)cc(C=O)c1O [compound 58, (E)-2-hydroxy-3-methoxy-5-(2-(quinolin-6-yl)vinyl)benzaldehyde] | 5 | 4.9 |
| O=Cc1cc(/C=C/c2ccc3ncccc3c2)cc(F)c1O [compound 59, (E)-3-fluoro-2-hydroxy-5-(2-(quinolin-6-yl)vinyl)benzaldehyde] | 2.6 | 4.1 |
| COc1cc(/C=C/c2ccc3c(c2)CCCN3C(=O)OC(C)(C)C)cc(C=O)c1O [compound 60, tert-butyl (E)-6-(3-formyl-4-hydroxy-5-methoxystyryl)-3,4-dihydroquinoline-1(2H)-carboxylate] | 0.9 | 2.3 |
| CC(C)(C)OC(=O)N1CCCc2cc(/C=C/c3cc(F)c(O)c(C=O)c3)ccc21 [compound 61, tert-butyl (E)-6-(3-fluoro-5-formyl-4-hydroxystyryl)-3,4-dihydroquinoline-1(2H)-carboxylate] | 0.4 | 1 |
| CN1CCCc2cc(/C=C/c3cc(F)c(O)c(C=O)c3)ccc21 [compound 62, (E)-3-fluoro-2-hydroxy-5-(2-(1-methyl-1,2,3,4-tetrahydroquinolin-6-yl)vinyl)benzaldehyde] | 0.8 | 1.5 |
| CCN(CC)c1ccc(/C=C/c2cc(C=O)c(O)c(OC)c2)cc1 [compound 63, (E)-5-(4-(diethylamino)styryl)-2-hydroxy-3-methoxybenzaldehyde] | 0.6 | 1.5 |
| CCN(CC)c1ccc(/C=C/c2cc(F)c(O)c(C=O)c2)cc1 [compound 64, (E)-5-(4-(diethylamino)styryl)-3-fluoro-2-hydroxybenzaldehyde] | 0.5 | 1.1 |
| COc1cc(/C=C/c2ccc(OCC3CC3)cc2)cc(C=O)c1O [compound 65, (E)-5-(4-(cyclopropylmethoxy)styryl)-2-hydroxy-3-methoxybenzaldehyde] | 0.5 | 1.7 |
